The values that follow come from patent US6486146B1, “Cancer accelerants and phase synchronization methods” (priority 2000, dated 2002).

Molecules are shown by their SMILES. Like-named read-outs stand apart in the source and are kept apart here.

Data set [1] deals with colon cancer tumor. As to the kind of experiment: Mathematical model of tumor size until lethal burden using 32% kill rate. The following applies: at both doses (125 mg and 100 mg), inferred from fit of the model to observed survival.
For data set [2], the system named is colon cancer. The following applies: cited from earlier work.
For data set [3], the system named is gastrointestinal epithelial cells. As to the kind of experiment: Expected kill of gastrointestinal epithelium from terminal half life versus cell cycle time.
In data set [4] the target is T1, topoisomerase I (Homo sapiens, UniProt P11387).
T1 sequence (P11387 1-765): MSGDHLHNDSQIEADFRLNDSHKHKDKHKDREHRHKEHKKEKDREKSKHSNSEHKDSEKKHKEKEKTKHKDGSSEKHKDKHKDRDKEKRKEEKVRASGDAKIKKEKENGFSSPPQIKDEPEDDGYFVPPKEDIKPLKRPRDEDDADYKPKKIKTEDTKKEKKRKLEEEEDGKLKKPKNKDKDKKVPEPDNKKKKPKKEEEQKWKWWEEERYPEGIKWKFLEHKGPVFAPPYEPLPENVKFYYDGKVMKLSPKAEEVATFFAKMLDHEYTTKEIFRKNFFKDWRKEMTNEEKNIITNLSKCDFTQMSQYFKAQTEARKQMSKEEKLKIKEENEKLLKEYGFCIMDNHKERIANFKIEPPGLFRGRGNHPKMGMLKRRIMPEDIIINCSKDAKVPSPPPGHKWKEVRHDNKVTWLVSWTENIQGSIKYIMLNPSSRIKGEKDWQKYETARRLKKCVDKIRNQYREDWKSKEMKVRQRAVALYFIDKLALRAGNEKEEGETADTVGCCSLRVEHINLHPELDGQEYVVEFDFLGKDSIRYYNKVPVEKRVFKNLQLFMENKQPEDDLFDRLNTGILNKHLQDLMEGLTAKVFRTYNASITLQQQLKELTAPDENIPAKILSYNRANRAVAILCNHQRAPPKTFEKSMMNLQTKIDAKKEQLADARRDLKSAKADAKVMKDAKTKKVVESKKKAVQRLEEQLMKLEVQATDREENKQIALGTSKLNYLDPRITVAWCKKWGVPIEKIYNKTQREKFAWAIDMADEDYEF
The following applies: SN-38 versus irinotecan; cited from earlier work.

The test system of data set [5] is metastatic breast cancer that possesses estrogen receptors. As to the kind of experiment: Example 4 patient, prior art doxorubicin regimen, tumor size. Type of data set: in vivo. The following applies: 30 mg/m2 once per week for 4 weeks, 3 cycles; illustrative patient example.

With `CCc1c2c(nc3ccc(OC(=O)N4CCC(N5CCCCC5)CC4)cc13)-c1cc3c(c(=O)n1C2)COC(=O)[C@]3(O)CC` [Camptosar, irinotecan], the S-Phase kill rate in data set [1] is roughly 100%. Besides, the median survival observed in data set [2] (100 mg once every 7 days for 4 weeks, 2 weeks off, 2 cycles, months x 30 days) is 279 days; in data set [2] (100 mg regimen), 9.3 mo; in data set [2] (125 mg once every 7 days for 4 weeks, 2 weeks off, 3 cycles, months x 30 days), 321 days; in data set [2] (125 mg regimen), 10.7 mo. For the same compound, the “mortality to gastrointestinal epithelium” value in data set [3] (present invention LD 60) worked out at 65%. In data set [3] (prior art LD 125 mg), this compound yielded a gastrointestinal epithelium killed of 95%.
In the case of `CCc1c2c(nc3ccc(O)cc13)-c1cc3c(c(=O)n1C2)COC(=O)[C@]3(O)CC` [SN-38], the “potency as a topoisomerase inhibitor relative to irinotecan” value in data set [4] is ~1,000 times.
For the compound `COc1cccc2c1C(=O)c1c(O)c3c(c(O)c1C2=O)C[C@@](O)(C(=O)CO)C[C@@H]3O[C@H]1C[C@H](N)[C@H](O)[C@H](C)O1` [doxorubicin], in data set [5], the “reduction in tumor size after the regimen” value is on record as 32%.
